Converted amounts (≈) assume the structure as drawn. Where a name gives a salt, the structure may show the parent alone.
Tests used:
[1] = system: protease Prozyme 6 (Enzyme F); test: Homogeneous aqueous enzymatic resolution (ester hydrolysis) with Enzyme F; assay type: biochemical, Asperqillus oryzae; details: 100 mg protease (F), 3.22 gm ester in 100 ml 0.2 M sodium phosphate buffer pH 7.0, room temperature, 20 hours
Method: (Prozyme 6) (F) added. The enzymatic reaction mixtures were capped and briefly shaken until all the substrate had dissolved, and the enzyme had completely dissolved or dispersed. […] Evaporation of the ether left a white solid. Rotations were measured at c=1 in CHCl3.
The enzymatic reaction mixtures were capped and briefly shaken until all the substrate had dissolved, and the enzyme had completely dissolved or dispersed. […] Evaporation of the ether left a white solid. Rotations were measured at c=1 in CHCl3.
The reaction was started by adding 100 mg of the protease (F) from the fungus Asperqillus oryzae (from Amano Enzyme Corporation, Prozyme 6, 60,000 units per mg of solid).
After 20 hours at room temperature, the solution was acidified to pH 2 and extracted with 3 volumes of diethyl ether. The aqueous phase was saved for subsequent workup. The ether phase was washed with two volumes of distilled water and then one volume of saturated sodium chloride, and then it was dried over MgSO4 and subsequently evaporated to dryness. The resolved ibuprofen product recovered was 930 mg of white powder, indicating 45% conversion of racemic ester to acid. The optical rotation was -0.580° (measured at c=1 in ethanol), indicating the R isomer of ibuprofen.
35 mg of protease Enzyme F, as the commercial preparation Prozyme 6, were added to the aqueous solution. The reaction flask was capped, and briefly shaken until all the enzyme had dissolved or dispersed. […] The resulting mixture was diluted with one volume of water and was extracted with diethyl ether (2 times 200 ml). The ether layers were combined and backwashed with water (2 times 200 ml), saturated NaCl solution (200 ml), and then dried over MgSO4.
In this control run, a 0.5 M ester solution of (1) was prepared in 325 ml of 0.1 M sodium phosphate buffer (pH 7.0). The reaction was started by adding 3 gm of the above enzyme (F). The pH was controlled at 7.0 with 8.22 M sodium hydroxide. After 6.49 hours at 30° C., 6.63 ml of hydroxide were added, indicating 37.7% conversion. […]

[2] = target: T1, Protease VIII: "Subtilopeptidase A" (subtilisin Carlsberg) (Enzyme B) (Bacillus licheniformis, UniProt P00780); test: Homogeneous aqueous enzymatic resolution (ester hydrolysis) with Enzyme B; assay type: biochemical; details: 100 mg enzyme B, 10 mmol ester in 100 ml 0.2 M phosphate buffer pH 7.0, 20-22° C., 20 hours
T1 sequence (P00780 106-379): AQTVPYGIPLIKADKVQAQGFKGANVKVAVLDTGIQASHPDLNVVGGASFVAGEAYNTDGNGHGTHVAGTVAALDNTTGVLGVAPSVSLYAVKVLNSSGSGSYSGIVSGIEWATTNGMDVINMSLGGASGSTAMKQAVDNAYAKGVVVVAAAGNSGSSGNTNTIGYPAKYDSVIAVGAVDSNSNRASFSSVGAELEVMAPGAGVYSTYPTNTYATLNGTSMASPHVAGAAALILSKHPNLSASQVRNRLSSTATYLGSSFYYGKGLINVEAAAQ

[3] = target: T2, Protease XVI: from Bacillus subtilis (Enzyme C) (Bacillus subtilis, UniProt P04189); test: Homogeneous aqueous enzymatic resolution (ester hydrolysis) with Enzyme C; assay type: biochemical; details: acid product; 100 mg enzyme C, 10 mmol ester in 100 ml 0.2 M phosphate buffer pH 7.0, 20-22° C., 20 hours
T2 sequence (P04189 107-381): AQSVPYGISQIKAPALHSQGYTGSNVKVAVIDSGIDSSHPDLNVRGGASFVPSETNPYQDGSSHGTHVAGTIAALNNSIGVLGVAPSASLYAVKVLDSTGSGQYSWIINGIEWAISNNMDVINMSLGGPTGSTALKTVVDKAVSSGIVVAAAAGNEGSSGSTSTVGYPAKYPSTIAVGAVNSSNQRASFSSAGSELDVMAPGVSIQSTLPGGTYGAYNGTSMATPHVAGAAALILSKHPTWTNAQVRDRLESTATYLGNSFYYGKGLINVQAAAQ

[4] = system: protease Prozyme 6 (Enzyme F); test: Asymmetric hydrolysis in an extractive dispersion reactor (hexane) with Enzyme F; assay type: biochemical, Asperqillus oryzae; details: 100 mg Prozyme 6, 3.38 gm ester in 100 ml 0.2 M sodium phosphate buffer pH 7.0 and 100 ml hexane, room temperature, 3.5 hours
Method: In this Example, the hexane was dispersed in the reaction vessel to extract the inhibitory ibuprofen acid as it is formed. The reaction was started by adding 100 mg of the protease from the fungus Asperqillus oryzae (from Amano Enzyme Corporation, Prozyme 6, 60,000 units per mg of solid).
After 3.5 hours at room temperature with vigorous stirring, the solution was acidified to pH 2 and extracted with 2 volumes of hexane. The aqueous phase was saved for subsequent workup. The hexane phase was dried over MgSO4 and evaporated to dryness. The resolved ibuprofen product so recovered consisted of 490 mg of white powder, indicating 24% conversion. The optical rotation was -0.568° (c=1.015 in ethanol), indicating the R isomer of ibuprofen.

[5] = system: Protease XXIII: from Aspergillus oryzae (Enzyme A); test: Homogeneous aqueous enzymatic resolution (ester hydrolysis) with Enzyme A; details: 100 mg enzyme A, 10 mmol ester in 100 ml 0.2 M phosphate buffer pH 7.0, 20-22° C., 20 hours
Method: 10.0 millimole (mmol) of ibuprofen substrate ester 1 (the methyl sulfonate derivative) was dissolved in 100 ml of 0.2 M phosphate buffer of the appropriate cation (sodium or potassium, to be the same as the substrate counterion) at pH 7.0. 100 mg of enzyme A, as the
commercial preparation, was added directly to this solution, and the reaction mixture was capped and then shaken briefly until all the enzyme preparation had dispersed or dissolved. The reaction mixture was then allowed to stand at ambient temperature (20°-22° C.) for 20 hours. […] The combined organic layers were backwashed twice with one volume of water, once with one volume of saturated NaCl solution, and then dried over MgSO4.
Evaporation of the ether under reduced pressure left the resolved ibuprofen acid product; no other purification was performed. The optical rotation was measured in EtOH at a concentration c=1.0 for the ibuprofen acid product.
In this Example, 0.010 mol of ibuprofen ester 3 (the propyl sulfonate derivative) was dissolved in 100 ml 0.2 M sodium phosphate buffer at pH 7.8, and 150 mg of the commercial enzyme A preparation was added. The reaction was then handled as described for Examples 6.2.1.1-6.2.1.7.
In this Example, 0.010 mol of ibuprofen ester 2 (the ethyl sulfonate ester in the form of its potassium salt) were dissolved in 125 ml of 0.2 M sodium phosphate buffer at pH 7.0, and 150 mg of enzyme A was added to the reaction mixture as the commercially supplied preparation. The reaction was allowed to proceed for 18 hours, and the resulting product mixture was then worked-up as described above for Examples 6.2.1.1-6.2.1.7.
150 mg of Protease XXIII (A), as the commercially available preparation, was added to the reaction mixture, the reaction vessel was capped, and the entire heterogeneous reaction mixture was shaken in a wrist-action shaker for 18 hours. […] This mixture was then extracted twice with 200 ml of diethyl ether. The combined organic layers were backwashed twice with one volume of water, once with one volume of saturated NaCl, and the organic phase was then dried over MgSO4. Evaporation of the ether under reduced pressure left the resolved naproxen acid. No further purification was performed. The optical rotation of the product was measured in CHCl3 at a concentration c=1.0.
0.010 mol of naproxen ester 8 (the potassium salt of the ethyl sulfonate ester) was dispersed in 125 ml of 0.2 M sodium phosphate buffer at pH 7.8. 150 mg of enzyme A, as the commercially available preparation, were added, and the reaction handled as described in Example 6.2.1.1.
0.010 mol of ibuprofen ester 6 (the compound) were dissolved in 100 ml of 0.2 M sodium phosphate buffer at pH 7.0. 100 mg of enzyme A was added as the commercially available preparation, and the reaction handled as described above in Examples 6.2.1.1-6.2.1.7.
2.0 gm (0.0058 mole) of naproxen ester 9 (the sulfomethyl compound) was dissolved in 400 ml of 50 mM sodium phosphate buffer at pH 7.5. To the reaction were added 100 mg of Protease XXIII (A) as the commercially available preparation. After the enzyme had dissolved, the reaction mixture was incubated at 25 degrees for 16 hours. The reaction mixture was then acidified to pH 1-2 by the careful dropwise addition of concentrated HCl, and then it was extracted with ether (3×150 ml). The aqueous layer was retained. The combined organic layers were backwashed with water (2×100 ml), and these aqueous washings were added to the previously retained aqueous layer of the reaction. The ether layer was then washed once with 100 ml of brine, and dried over MgSO4.

[6] = target: T3, Protease XXVII: "Nagarse" (Enzyme D) (Bacillus amyloliquefaciens, UniProt P00782); test: Homogeneous aqueous enzymatic resolution (ester hydrolysis) with Enzyme D; assay type: biochemical; details: 100 mg enzyme D, 10 mmol ester in 100 ml 0.2 M phosphate buffer pH 7.0, 20-22° C., 20 hours
T3 sequence (P00782 108-382): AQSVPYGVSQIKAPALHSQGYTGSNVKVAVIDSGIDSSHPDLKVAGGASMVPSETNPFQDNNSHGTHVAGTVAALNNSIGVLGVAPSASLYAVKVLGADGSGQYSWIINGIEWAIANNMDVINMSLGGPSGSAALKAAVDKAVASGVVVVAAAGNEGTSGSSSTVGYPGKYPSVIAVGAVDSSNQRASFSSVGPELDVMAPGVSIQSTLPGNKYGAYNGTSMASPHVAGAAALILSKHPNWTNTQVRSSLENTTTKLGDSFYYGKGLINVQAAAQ

[7] = system: Protease XXIV: bacterial protease (Enzyme H); test: Rates of hydrolysis of the two enantiomers (pH stat), Enzyme H; assay type: biochemical; details: for Rate (rate of hydrolysis): 50 mM ester, 50 mM buffer pH 7.6, 0.1 ml of 50 mg/ml Enzyme H
Method: (§1) 15 ml of a solution containing one enantiomer of the ester at a concentration of 50 mM, and Na3 PO4 buffer at 50 mM and pH 7.6 was observed using a pH stat device. 0.1 ml of a 50 mg/ml solution of Enzyme H, made up from the commercially available preparation in 50 mM Na3 PO4 buffer at pH 7.6, were added. Rates of hydrolysis of both enantiomers of the ester compound were determined for the enzyme. The ratio of the rates of hydrolysis for the two enantiomers for the two enantiomers with respect to the enzyme indicate the stereospecificity of that enzyme's hydrolytic action on the racemic mixture of the ester. No evidence for the hydrolysis of the acetylthio ester portion of the substrate molecule was found.

[8] = target: T1, Protease VIII: "Subtilopeptidase A" (subtilisin Carlsberg) (Enzyme B); test: Rates of hydrolysis of the two enantiomers (pH stat), Enzyme B; assay type: biochemical; details: 50 mM ester, 50 mM buffer pH 7.6, 0.1 ml of 50 mg/ml enzyme B
Method: as §1, with “Na” for “Na3 PO4”, “enzyme B,” for “Enzyme H,”

[9] = system: Protease XIV: from Streptomyces griseus (Enzyme G); test: Rates of hydrolysis of the two enantiomers (pH stat), Enzyme G; assay type: biochemical; details: for Rate (rate of hydrolysis): 50 mM ester, 50 mM buffer pH 7.6, 0.1 ml of 50 mg/ml enzyme G
Method: as §1, with “solution of protease enzyme G, made up” for “solution of Enzyme H, made up”, “50 mM Na buffer at” for “50 mM Na3 PO4 buffer at”, “for the protease enzyme. The” for “for the enzyme. The”

[10] = target: T3, Protease XXVII: "Nagarse" (Enzyme D); test: Rates of hydrolysis of the two enantiomers (pH stat), Enzyme D; assay type: biochemical; details: 50 mM ester, 50 mM buffer pH 7.6, 0.1 ml of 50 mg/ml enzyme D
Method: as §1, with “enzyme D,” for “Enzyme H,”, “thioacetyl” for “acetylthio”

[11] = system: Protease XXIII: from Aspergillus oryzae (Enzyme A); test: Rates of hydrolysis of the two enantiomers (pH stat), Enzyme A; assay type: biochemical; details: for Rate (rate of hydrolysis): 50 mM ester, 50 mM buffer pH 7.6, 0.1 ml of 50 mg/ml enzyme A
Method: as §1, with “and Na” for “and Na3 PO4”, “of enzyme A,” for “of Enzyme H,”

[12] = Solubility by absorbance of saturated solutions at 262 nm; assay type: physicochemical; details: saturated solution, pH 7, 5 mM phosphate buffer, room temperature

With `CC(C)Cc1ccc(C(C)C(=O)OCS(=O)(=O)O)cc1` (centres unmarked) [Compound 1, Sodium Salt of 4-Sulfomethyl Ester of 2-(4-Isobutylphenyl)propanoic Acid] as the compound, how does the “conversion of racemic ester to acid” value [1] read?
Its value is 45%.

And the “% CONVERSION” value [2]?
The value was 29.1%.

What about the “% e.e.” value ([2]; acid product) of the same compound?
Its value is 44.6%.

And the “% e.e.” value [3]?
Its value is 70.7%.

And the conversion [4]?
The conversion was 24%.

And the “% CONVERSION” value [5]?
Its value is 37.9%.

What about the “% e.e.” value ([5]; acid product) of the same compound?
The value was > 99%.

And the “% CONVERSION” value [6]?
The value was 34.0%.

What about the “% e.e.” value ([6]; acid product) of the same compound?
The value was 37.7%.

With `CC(=O)SC[C@@H](C)C(=O)OCS(=O)(=O)O` [Compound 14, Potassium Salt of the Sulfomethyl Ester of D-(-)-S-3-Acetylthio-2-methylpropanoic Acid] as the compound, how does the “Rate (rate of hydrolysis)” value [7] read?
The value was 61 umols/hr/mg.

And the “Rate (rate of hydrolysis)” value [8]?
The value was 65 umols/hr/mg.

And the “Rate (rate of hydrolysis)” value [9]?
The value was 63 umols/hr/mg.

And the “Rate (rate of hydrolysis)” value [10]?
Its value is 27 umols/hr/mg.

What about the “Rate (rate of hydrolysis)” value [11] of the same compound?
The value was 5.3 umols/hr/mg.

With `CC(=O)SC[C@H](C)C(=O)OCS(=O)(=O)O` [Compound 15, Potassium Salt of the Sulfomethyl Ester of L-(+)-S-3-Acetylthio-2-methylpropanoic Acid] as the compound, how does the “Rate (rate of hydrolysis)” value [7] read?
Its value is 65 umols/hr/mg.

What about the “Rate Ratio L/D” value ([7]; Enzyme H, pH 7.6) of the same compound?
Its value is 1.1.

And the “Rate (rate of hydrolysis)” value [8]?
Its value is 135 umols/hr/mg.

What about the “Rate (rate of hydrolysis)” value [9] of the same compound?
The value was 105 umols/hr/mg.

What about the “Rate Ratio L/D” value ([9]; enzyme G, pH 7.6) of the same compound?
Its value is 1.7.

And the “Rate (rate of hydrolysis)” value [10]?
The value was 29 umols/hr/mg.

What about the “Rate (rate of hydrolysis)” value [11] of the same compound?
The value was 12 umols/hr/mg.

What about the “Rate Ratio L/D” value ([11]; enzyme A, pH 7.6) of the same compound?
Its value is 2.3.

With `COCCOC(=O)C(C)c1ccc(CC(C)C)cc1` (centres unmarked) [Methoxyethyl ester of ibuprofen] as the compound, how does the Solubility [12] read?
Its Solubility is 180 µM (≈ 47.6 µg/mL).

Reference: patent US5057427A, “Method for resolution of stereoisomers” (Sepracor, Inc., priority 1988, dated 1991)
